Results published in ChEMBL document CHEMBL1157460, “Enhanced concentration-dependent cytotoxic effect of the dinuclear copper(II) complex of L-carnitine [Cu2(L-carnitine)2Cl2(H2O)2]Cl2, compared to L-carnitine or copper chloride dihydrate, in human leukemic cell lines” (2008).

How the values were obtained:
HL-60 [1] = test: Cytotoxicity against human HL60 cells assessed as cell viability at <=2.5 uM by MTT assay; assay type: functional, cell-based; conditions: TDE = time-dependent effect
K562 [2] = test: Cytotoxicity against human K562 cells assessed as cell viability at >=5 uM after 24 hrs by MTT assay; assay type: functional, cell-based
HL-60 [3] = test: Cytotoxicity against human HL60 cells assessed as necrosis at 5 uM after 48 hrs by trypan blue staining; assay type: functional
K562 [4] = test: Cytotoxicity against human K562 cells assessed as necrosis at 5 uM after 48 hrs by trypan blue staining; assay type: functional
K562 [5] = test: Cytotoxicity against human K562 cells assessed as cell viability at <=2.5 uM by MTT assay; assay type: functional, cell-based; conditions: TDE = time-dependent effect
HL-60 [6] = test: Cytotoxicity against human HL60 cells assessed as necrosis at 1.25 uM after 72 hrs by trypan blue staining; assay type: functional
HL-60 [7] = test: Cytotoxicity against human HL60 cells assessed as necrosis at 2.5 uM after 24 hrs by trypan blue staining; assay type: functional
K562 [8] = test: Cytotoxicity against human K562 cells assessed as necrosis at 5 uM after 24 hrs by trypan blue staining; assay type: functional
K562 [9] = test: Cytotoxicity against human K562 cells assessed as necrosis at 1.25 uM after 72 hrs by trypan blue staining; assay type: functional
HL-60 [10] = test: Cytotoxicity against human HL60 cells assessed as necrosis at 10 uM after 24 hrs by trypan blue staining; assay type: functional
HL-60 [11] = test: Cytotoxicity against human HL60 cells assessed as necrosis at 10 uM after 48 hrs by trypan blue staining; assay type: functional
K562 [12] = test: Cytotoxicity against human K562 cells assessed as necrosis at 2.5 uM after 24 hrs by trypan blue staining; assay type: functional
HL-60 [13] = test: Cytotoxicity against human HL60 cells assessed as necrosis at 5 uM after 24 hrs by trypan blue staining; assay type: functional
HL-60 [14] = test: Cytotoxicity against human HL60 cells assessed as necrosis at 2.5 uM after 72 hrs by trypan blue staining; assay type: functional
K562 [15] = test: Cytotoxicity against human K562 cells assessed as necrosis at 1.25 uM after 24 hrs by trypan blue staining; assay type: functional
K562 [16] = test: Cytotoxicity against human K562 cells assessed as necrosis at 2.5 uM after 72 hrs by trypan blue staining; assay type: functional
K562 [17] = test: Cytotoxicity against human K562 cells assessed as necrosis at 2.5 uM after 48 hrs by trypan blue staining; assay type: functional
HL-60 [18] = test: Cytotoxicity against human HL60 cells assessed as necrosis at 10 uM after 72 hrs by trypan blue staining; assay type: functional
HL-60 [19] = test: Cytotoxicity against human HL60 cells assessed as necrosis at 1.25 uM after 48 hrs by trypan blue staining; assay type: functional
HL-60 [20] = test: Cytotoxicity against human HL60 cells assessed as necrosis at 5 uM after 72 hrs by trypan blue staining; assay type: functional
K562 [21] = test: Cytotoxicity against human K562 cells assessed as necrosis at 10 uM after 48 hrs by trypan blue staining; assay type: functional
K562 [22] = test: Cytotoxicity against human K562 cells assessed as necrosis at 10 uM after 72 hrs by trypan blue staining; assay type: functional
HL-60 [23] = test: Cytotoxicity against human HL60 cells assessed as necrosis at 2.5 uM after 48 hrs by trypan blue staining; assay type: functional
HL-60 [24] = test: Cytotoxicity against human HL60 cells assessed as necrosis at 1.25 uM after 24 hrs by trypan blue staining; assay type: functional
K562 [25] = test: Cytotoxicity against human K562 cells assessed as necrosis at 1.25 uM after 48 hrs by trypan blue staining; assay type: functional
HL-60 [26] = test: Cytotoxicity against human HL60 cells assessed as cell viability at >=5 uM after 24 hrs by MTT assay; assay type: functional, cell-based
K562 [27] = test: Cytotoxicity against human K562 cells assessed as necrosis at 10 uM after 24 hrs by trypan blue staining; assay type: functional
K562 [28] = test: Cytotoxicity against human K562 cells assessed as necrosis at 5 uM after 72 hrs by trypan blue staining; assay type: functional

Row | Compound | Activity (HL-60 [1]) | Activity (HL-60 [3]) [%] | Activity (K562 [4]) [%] | Activity (K562 [5]) | Activity (HL-60 [6]) [%] | Activity (HL-60 [7]) [%] | Activity (K562 [8]) [%] | Activity (K562 [9]) [%] | Activity (HL-60 [10]) [%] | Activity (HL-60 [11]) [%] | Activity (K562 [12]) [%] | Activity (HL-60 [13]) [%] | Activity (HL-60 [14]) [%] | Activity (K562 [15]) [%] | Activity (K562 [16]) [%] | Activity (K562 [17]) [%] | Activity (HL-60 [18]) [%] | Activity (HL-60 [19]) [%] | Activity (HL-60 [20]) [%] | Activity (K562 [21]) [%] | also measured
1 | C[N+](C)(C)C[C@H](O)CC(=O)[O-] [LEVOCARNITINE] | tde | 9.2 | 8.9 | tde | 13.6 | 0 | 0 | 4.7 | 1.7 | 9.7 | 2.4 | 1.8 | 28.4 | 0 | 4.7 | 0 | 30 | 5.3 | 25.6 | 11.1 | Activity (K562 [2]; TDE = time-dependent effect): tde; Activity (K562 [22]): 11.8%; Activity (HL-60 [23]): 7.8%; Activity (HL-60 [24]): 1.4%; Activity (K562 [25]): 2.5%; Activity (HL-60 [26]; TDE = time-dependent effect): tde; Activity (K562 [27]): 2.4%; Activity (K562 [28]): 14.3%
2 | CUPRIC CHLORIDE | tde | 100 | 100 | tde | 26.5 | 1.5 | 87.5 | 3 | 100 | 100 | 5.1 | 86.2 | 22.6 | 16.3 | 7.5 | 10.8 | 100 | 10.8 | 100 | 100 | Activity (K562 [2]): 0%; Activity (K562 [22]): 100%; Activity (HL-60 [23]): 6.8%; Activity (HL-60 [24]): 1.4%; Activity (K562 [25]): 4.9%; Activity (HL-60 [26]): 0%; Activity (K562 [27]): 100%; Activity (K562 [28]): 100%
